Measured values published in patent US6180356A (priority 1998, dated 2001).

Tests used:
[1] = biological target: T domain of diphtheria toxin (Corynephage beta, UniProt P00588); assay: biochemical; format: biochemical, Corynebacterium diphtheriae; conditions: for inhibition at 10 µM: read-out: inhibition of T domain membrane pore formation; for quenching of 3 kD CB-dextran: control without inhibitor about 70%
[2] = tested on: diphtheria toxin translocation across Vero cell membranes; conditions: Falnes and Olsnes 1995; cited from earlier work
diphtheria toxin = diphtheria toxin (Corynephage beta, UniProt P00588); assay: biochemical; format: biochemical, Corynebacterium diphtheriae; conditions: for inhibition of 3 kD dextran release / pore formation: relative to release in absence of target agent; for inhibition of membrane pore formation (in words): whole diphtheria toxin; for quenching of the fluorescence of the 3 kD dextran: 10 μM inhibitor added before toxin, 3 kD CB-dextran, pH 4.5, control without agent about 75%; for inhibition at 10 µM: read-out: inhibition of 3 kD dextran release / pore formation
Sequence of diphtheria toxin (P00588 33-567 limits assumed): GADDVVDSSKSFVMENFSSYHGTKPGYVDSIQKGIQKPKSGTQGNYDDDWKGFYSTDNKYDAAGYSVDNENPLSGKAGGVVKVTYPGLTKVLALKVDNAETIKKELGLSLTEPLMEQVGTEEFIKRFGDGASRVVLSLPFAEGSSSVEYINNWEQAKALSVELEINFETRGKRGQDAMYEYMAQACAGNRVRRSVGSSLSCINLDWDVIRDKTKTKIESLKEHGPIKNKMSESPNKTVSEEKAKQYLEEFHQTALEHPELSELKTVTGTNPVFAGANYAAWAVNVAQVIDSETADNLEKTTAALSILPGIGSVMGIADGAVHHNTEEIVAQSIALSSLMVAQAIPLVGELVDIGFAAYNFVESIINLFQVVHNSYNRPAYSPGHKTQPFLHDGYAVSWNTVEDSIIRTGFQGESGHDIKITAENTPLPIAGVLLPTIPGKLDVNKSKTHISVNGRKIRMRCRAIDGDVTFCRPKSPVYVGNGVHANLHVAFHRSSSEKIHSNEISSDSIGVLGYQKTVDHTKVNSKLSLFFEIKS

[3] = 10 μM inhibitor, about 5 μg of T domain
[4] = 10 μM inhibitor, 1.0 μg of toxin

Sequence of T domain of diphtheria toxin (P00588 234-410 limits assumed): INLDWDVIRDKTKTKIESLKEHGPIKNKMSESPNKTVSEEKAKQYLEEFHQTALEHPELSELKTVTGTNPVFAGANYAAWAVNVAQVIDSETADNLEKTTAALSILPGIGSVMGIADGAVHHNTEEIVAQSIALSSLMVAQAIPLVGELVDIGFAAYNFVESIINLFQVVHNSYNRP

Row | SMILES | inhibition of T domain membrane pore formation (in words) [1, 3] | inhibition of diphtheria toxin translocation [2] | inhibition of membrane pore formation (in words) (diphtheria toxin; 10 μM inhibitor) | quenching of the fluorescence of the 3 kD dextran (diphtheria toxin; 1.0 μg of toxin) | further results
1 | Nc1c(S(=O)(=O)O)cc(Nc2ccc(Nc3nc(Cl)nc(Nc4ccccc4S(=O)(=O)O)n3)c(S(=O)(=O)O)c2)c2c1C(=O)c1ccccc1C2=O [Cibacron Blue, Cibacron Blue F3G-A] | somewhat less inhibition | inhibitors of diphtheria toxin translocation | Strong inhibition |  | inhibition at 10 µM [1]: ~22%; quenching for all the dextrans (diphtheria toxin; 10 μM inhibitor, 1.0 μg of toxin, all the dextrans): 0%; inhibition of 3 kD dextran release / pore formation (diphtheria toxin; [4]): completely inhibited
2 | O=C(Nc1cc(S(=O)(=O)[O-])cc2cc(S(=O)(=O)[O-])c(N=Nc3cc(Nc4nc(Cl)nc(Nc5ccc(S(=O)(=O)[O-])cc5)n4)ccc3S(=O)(=O)[O-])c(O)c12)c1ccccc1.[Na+].[Na+].[Na+].[Na+] [Cibacron Red, Cibacron brilliant red 3B-A] | strong inhibition |  | strong inhibition | 0% | inhibition of T domain membrane pore formation ([1]; 10 μM inhibitor, about 5 μg of T domain, 3 kD CB-dextran): 87%; quenching of 3 kD CB-dextran [1, 3]: about 9%; inhibition of 3 kD dextran release / pore formation (diphtheria toxin; [4]): 100%
3 | O=S(=O)(O)c1cc(N=C=S)ccc1/C=C/c1ccc(N=C=S)cc1S(=O)(=O)O [DIDS] |  | inhibitors of diphtheria toxin translocation |  |  | 
4 | COc1cc(S(=O)(=O)O)c2ccc3c(S(=O)(=O)O)cc(S(=O)(=O)O)c4ccc1c2c43 [MPT, 8-methoxy-pyrene 1,3,6-trisulfonic acid] |  |  |  |  | diphtheria toxin pore formation inhibited (in words) (diphtheria toxin; MPT as entrapped reporter, higher toxin concentrations, MPT released less than 3 kD CB-dextran): inhibited
5 | CCN1C(=O)C=CC1=O [NEM] |  | inhibitors of diphtheria toxin translocation |  |  | 
6 | O=S(=O)(O)c1ccc(N=Nc2ccc(N=Nc3c(O)c(S(=O)(=O)O)cc4cc(S(=O)(=O)O)ccc34)c(S(=O)(=O)O)c2)cc1 [Ponceau S, 3-hydroxy-4-[2-sulfo-4(4-sulfophenylazo)phenylazo]-2,7-naphthalenedisulfonic acid] | strong inhibition |  | moderate inhibition | about 25% | quenching of 3 kD CB-dextran [1, 3]: about 20%; inhibition at 10 µM [1]: ~70%; inhibition at 10 µM (diphtheria toxin): ~67%
7 | O=S(=O)([O-])c1ccc2c(N=Nc3ccc(S(=O)(=O)[O-])c4ccccc34)c(O)c(S(=O)(=O)[O-])cc2c1.[Na+].[Na+].[Na+] [amaranth, 3-Hydroxy-4-[(4-sulfo-1-naphthalenyl)azo]2,7-naphthalenedisulfonic acid trisodium salt] |  |  | weak inhibitor | about 50% | inhibition at 10 µM (diphtheria toxin): ~30%
